Assay results published in PMC5147891 (PLoS ONE, 2016).
Where “and” joins values, the source holds several entries; their conditions need not be identical. Equal values may be shown once. Marks after values point to notes of the source that are not given here.

Tests used:
[1] = molecular target: T1, hCB2 receptors (Homo sapiens, UniProt P34972); assay: Forskolin-stimulated intracellular [3H]cAMP in intact CHO-hCB2 cells; type: cell-based; conditions: values only approximate; for EMAX, intracellular [3H]cAMP: forskolin-stimulated cAMP; for EC50: increase of forskolin-stimulated cAMP
T1 construct: expressed in transfected cells
Experimental: CHO-hCB1, CHO-hCB2, or CHO-hMOR cells were plated separately in normal culture media into 24-well plates at a density of 6 × 10^6 cells/plate and incubated overnight at 37°C in 5% CO2. As previously described, the following day culture media was removed from each well and replaced with 500 μl pre-incubation mixture containing either HAM’s F-12 K (CHO-hCB1) or DMEM (CHO-hCB2 and CHO-hMOR) with 0.9% NaCl, 500 μM 3-isobutyl-1-methylxathine (IBMX) and 2 μCi/well [^3H]adenine. Cells were incubated for 3–5 hr at 37°C. The pre-incubation mix was removed and indicated concentrations of drugs were added to the individual wells for 15 min at 37°C in a Krebs-Ringer-HEPES solution (10 mM HEPES, 110mM NaCl, 25mM Glucose, 55mM Sucrose, 5mM KCl, 1mM MgCl2, 1.8 mM CaCl2, pH 7.4) containing IBMX, and 10 μM forskolin. Reactions were terminated by adding 50 μl 2.2N HCl and [^3H]cAMP was isolated by employing alumina column chromatography. Radioactivity contained in 4 ml of the final column eluate was counted by a Packard-Tri-carb 2100/TR liquid scintillation counter after adding 10 ml of liquid scintillation cocktail.
To determine if modulation of adenylyl cyclase activity by SERMs was mediated through CB2 receptors coupling to Gi/o proteins, additional cAMP assays were conducted following overnight treatment with pertussis toxin as described elsewhere. Briefly, CHO-hCB2 cells were seeded into 24-well plates as described above in normal culture media containing 100 ng/ml of pertussis toxin and incubated overnight at 37°C. Pertussis toxin-treated media was removed and measurement of intracellular [^3H]cAMP levels following indicated SERM treatments was conducted as described above.
(§1) Data presented are expressed as mean ± standard error of the mean (S.E.M.) for a minimum of three experiments, each performed in triplicate. GraphPad Prism version 6.0f (GraphPad Software Inc.) was used for all curve-fitting and statistical analyses. Non-linear regression for one-site competition was used to determine the IC50 for competition receptor binding. IC50 values were subsequently converted to Ki values (a measure of receptor affinity) by the Cheng-Prusoff equation [31]. Non-linear regression was also used to analyze concentration-effect curves to determine the EC50 or IC50 (measures of potency) and Emax or Imax (measures of efficacy) for GTPγS binding and adenylyl cyclase experiments, respectively. All dissociation constants and measurements of potency were converted to pKi, pKB, pEC50, or pIC50 values by taking the negative log of each value so that parametric tests could be used for statistical comparisons. To compare three or more groups, statistical significance of the data was determined by a one-way ANOVA, followed by post hoc comparisons using a Tukey's or Dunnett's test. To compare two groups, the non-paired Student's t-test was used.

[2] = molecular target: T1, hCB2 receptors; assay: Competition receptor binding with [3H]CP-55,940, CHO-hCB2 membranes; conditions: [3H]CP-55,940 binding, CHO-hCB2, 0.2 nM [3H]CP-55,940, CHO-hCB2 membranes
Experimental: (§2) CHO-hCB1, CHO-hCB2 and CHO-hMOR cells were homogenized individually with 10 complete strokes utilizing a 7ml Dounce glass homogenizer in an ice-cold buffer containing 50 mM HEPES pH 7.4, 3 mM MgCl2, and 1 mM EDTA as described previously. The homogenized samples were then centrifuged at 40,000 × g for 10 min at 4°C. Supernatants were discarded; the pellets re-suspended in the buffer, homogenized again, and centrifuged similarly twice more. After the final centrifugation step, supernatants were discarded and pellets were re-suspended in ice-cold 50 mM HEPES, pH 7.4 to achieve an approximate protein concentration of 10 mg/ml. Membrane homogenates were divided into aliquots and stored at −80°C for future use. A small aliquot of each membrane preparation was removed prior to freezing and the protein concentration was determined using BCA Protein Assay (Thermo Fisher Scientific, Waltham, MA).
(§3) Competition receptor binding was performed as reported earlier. […] The total volume of the incubation mixture was 1 ml. All reactions were mixed and allowed to reach equilibrium binding by incubation at room temperature for 90 min. […] Binding was terminated by rapid vacuum filtration through glass fiber filters (Brandel, Gaithersburg, MD), followed by four 5 ml washes of ice-cold 50 mM Tris-HCl (pH 7.4) buffer containing 0.1% bovine serum albumin. Four ml of scintiverse scintillation fluid (Fisher Scientific, Waltham, MA) was added to the filters and the amount of radioactivity was quantified 24 hr later utilizing liquid scintillation spectrophotometry.
as §1

[3] = molecular target: T2, hCB1 receptors (Homo sapiens, UniProt P21554); assay: Competition receptor binding with [3H]CP-55,940, CHO-hCB1 membranes; conditions: for Ki: [3H]CP-55,940 binding, CHO-hCB1, 0.2 nM [3H]CP-55,940, CHO-hCB1 membranes; for Selectivity (CB1/CB2): ratio hCB1-Ki/hCB2-Ki
Experimental: as §2, §3, §1

[4] = molecular target: T1, hCB2 receptors; assay: [35S]GTPγS binding (G-protein activity), CHO-hCB2 membranes; type: biochemical; conditions: 10 μM
Experimental: as §2
The GTPγS binding assay to measure G-protein activation was performed as previously described. Briefly, in a total volume of 1 ml, 25 μg of CHO-hCB2, 50 μg of CHO-hCB1-Rx or 50 μg of CHO-hMOR membranes homogenates were added to each reaction mixture containing 0.1 nM [^35S]GTPγS, 20 mM HEPES, 10 mM MgCl2, 100 mM NaCl, 10 μM GDP, 0.1% bovine serum albumin and the indicated concentrations of ligand to be examined. After mixing, reaction mixtures were incubated at 30°C for 30 min. […] Nonspecific binding was defined by the amount of radioactivity remaining in the presence of 10 μM non-radiolabeled GTPγS. […] Four ml of scintiverse scintillation fluid (Fisher Scientific, Waltham, MA) was added to the filters and the amount of radioactivity was quantified 24 hr later utilizing liquid scintillation spectrophotometry.
Data presented are expressed as mean ± standard error of the mean (S.E.M.) for a minimum of three experiments, each performed in triplicate. […] To compare three or more groups, statistical significance of the data was determined by a one-way ANOVA, followed by post hoc comparisons using a Tukey's or Dunnett's test. […]

[5] = tested on: ERs; conditions: ref [23], [24]; cited from earlier work
[6] = molecular target: T1, hCB2 receptors; assay: Antagonism of CP-55,940 inhibition of AC activity in intact CHO-hCB2 cells; type: cell-based
Experimental: (§4) After overnight seeding into 24-well plates and pre-incubation of cells with [^3H]adenine for 3–5 hr at 37°C as described above, media was removed and the indicated concentration of the SERM to be tested was added to all wells of the 24-well plate. […] Reactions were terminated and [^3H]cAMP isolated as described above.
as §1

[7] = molecular target: T2, hCB1 receptors; assay: Antagonism of CP-55,940 inhibition of AC activity in intact CHO-hCB1 cells; type: cell-based; conditions: for Type of antagonism of CP-55,940 / IMAX of CP-55,940, intracellular [3H]cAMP: CHO-hCB1 cells; for Kb: read-out: Kb (antagonist dissociation constant); for IMAX of CP-55,940, intracellular [3H]cAMP: CP-55,940 alone or after pre-incubation with AM-281 1 μM, Z-Tam 30 μM, Z-4OHT 10 μM, Z-End 30 μM
Experimental: as §4, §1

[8] = molecular target: T3, human mu-opioid receptors (hMOR) (Homo sapiens, UniProt P35372); assay: [35S]GTPγS binding (G-protein activity), CHO-hMOR membranes; type: biochemical; conditions: 10 μM
T3 construct: expressed in transfected cells
Experimental: as §2, with “Membrane homogenates were divided into aliquots and stored at −80°C for future use.” left out
The GTPγS binding assay to measure G-protein activation was performed as previously described. […] Nonspecific binding was defined by the amount of radioactivity remaining in the presence of 10 μM non-radiolabeled GTPγS. […] Four ml of scintiverse scintillation fluid (Fisher Scientific, Waltham, MA) was added to the filters and the amount of radioactivity was quantified 24 hr later utilizing liquid scintillation spectrophotometry.
Data presented are expressed as mean ± standard error of the mean (S.E.M.) for a minimum of three experiments, each performed in triplicate. […]

[9] = molecular target: T2, hCB1 receptors; assay: [35S]GTPγS binding (G-protein activity), CHO-hCB1 membranes; type: biochemical; conditions: read-out: IMAX, inhibition of basal [35S]GTPγS binding
Experimental: as §2
The GTPγS binding assay to measure G-protein activation was performed as previously described. Briefly, in a total volume of 1 ml, 25 μg of CHO-hCB2, 50 μg of CHO-hCB1-Rx or 50 μg of CHO-hMOR membranes homogenates were added to each reaction mixture containing 0.1 nM [^35S]GTPγS, 20 mM HEPES, 10 mM MgCl2, 100 mM NaCl, 10 μM GDP, 0.1% bovine serum albumin and the indicated concentrations of ligand to be examined. After mixing, reaction mixtures were incubated at 30°C for 30 min. […] Nonspecific binding was defined by the amount of radioactivity remaining in the presence of 10 μM non-radiolabeled GTPγS. Reactions were terminated by rapid vacuum filtration through glass fiber filters followed by four washes with ice cold 50 mM HEPES (pH 7.4) containing 0.1% bovine serum albumin. Four ml of scintiverse scintillation fluid (Fisher Scientific, Waltham, MA) was added to the filters and the amount of radioactivity was quantified 24 hr later utilizing liquid scintillation spectrophotometry.
as §1, with “All dissociation constants and measurements of potency were converted to pKi, pKB, pEC50, or pIC50 values by taking the negative log of each value so that parametric tests could be used for statistical comparisons.” left out, “To compare two groups, the non-paired Student's t-test was used.” left out

T2 sequence (P21554 whole entry): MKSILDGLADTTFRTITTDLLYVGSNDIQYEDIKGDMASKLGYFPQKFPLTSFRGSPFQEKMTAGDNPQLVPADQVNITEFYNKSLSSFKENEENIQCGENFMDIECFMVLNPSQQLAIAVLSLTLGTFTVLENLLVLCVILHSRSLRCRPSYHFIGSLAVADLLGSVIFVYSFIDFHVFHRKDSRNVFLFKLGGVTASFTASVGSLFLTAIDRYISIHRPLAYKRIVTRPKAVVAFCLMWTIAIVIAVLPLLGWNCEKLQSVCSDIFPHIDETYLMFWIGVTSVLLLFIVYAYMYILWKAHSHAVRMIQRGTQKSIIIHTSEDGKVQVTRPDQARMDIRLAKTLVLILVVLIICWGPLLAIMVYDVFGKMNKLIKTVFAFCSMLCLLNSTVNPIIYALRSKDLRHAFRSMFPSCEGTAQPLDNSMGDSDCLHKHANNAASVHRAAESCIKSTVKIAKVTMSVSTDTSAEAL
T1 sequence (P34972 whole entry): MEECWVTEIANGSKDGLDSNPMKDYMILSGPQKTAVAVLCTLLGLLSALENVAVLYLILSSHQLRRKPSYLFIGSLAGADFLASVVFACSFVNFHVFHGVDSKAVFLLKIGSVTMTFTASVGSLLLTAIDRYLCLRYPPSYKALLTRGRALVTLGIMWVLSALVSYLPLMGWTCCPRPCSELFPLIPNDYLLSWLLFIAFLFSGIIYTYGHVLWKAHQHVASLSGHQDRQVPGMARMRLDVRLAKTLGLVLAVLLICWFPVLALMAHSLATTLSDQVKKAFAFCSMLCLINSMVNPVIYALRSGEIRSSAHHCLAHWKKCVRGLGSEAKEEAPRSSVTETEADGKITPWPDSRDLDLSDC
T3 sequence (P35372 whole entry): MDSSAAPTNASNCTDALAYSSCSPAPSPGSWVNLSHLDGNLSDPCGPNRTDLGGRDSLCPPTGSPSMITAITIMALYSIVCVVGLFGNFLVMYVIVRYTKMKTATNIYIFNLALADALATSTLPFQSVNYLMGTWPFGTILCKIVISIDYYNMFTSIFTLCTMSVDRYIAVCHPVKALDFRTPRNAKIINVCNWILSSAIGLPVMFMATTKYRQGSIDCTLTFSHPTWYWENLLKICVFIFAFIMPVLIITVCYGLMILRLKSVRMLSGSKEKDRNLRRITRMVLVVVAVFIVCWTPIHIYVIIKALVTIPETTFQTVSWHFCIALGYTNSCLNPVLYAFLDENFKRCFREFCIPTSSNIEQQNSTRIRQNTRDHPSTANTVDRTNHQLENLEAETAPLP

Structure (SMILES) | EMAX, intracellular [3H]cAMP [1] | EC50 [1] | Ki [2] | Ki [3] | Selectivity (CB1/CB2) [3] | IMAX, decrease in basal G-protein activity ([35S]GTPγS binding) [4] | Functional activity at ERs [5] | Type of antagonism of CP-55,940 [6] | Kb ([6]; against CP-55,940, AM-630 1 μM, Z-Tam 10 μM, Z-4OHT 10 μM, read-out: Kb (antagonist dissociation constant)) | Type of antagonism of CP-55,940 [7] | Kb [7] | Shift-to-the-right in potency (IC50) of CP-55,940 ([6]; Z-End 30 μM) | Decrease in [35S]GTPγS binding [8] | IMAX of CP-55,940, intracellular [3H]cAMP ([6]; CP-55,940 alone or after pre-incubation with AM-630 1 μM, Z-Tam 10 μM, Z-4OHT 10 μM, Z-End 30 μM) | inhibition at 10 µM [9] | IMAX of CP-55,940, intracellular [3H]cAMP [7] | IMAX of CP-55,940, intracellular [3H]cAMP ([7]; listed as +Z-Tam)
CC/C(=C(/c1ccc(O)cc1)c1ccc(OCCNC)cc1)c1ccccc1 [E-End, 4-hydroxy-N-desmethyl tamoxifen] | 239 ± 22^b % | 10700 nM | 2350 nM | 1390 nM | 0.59 |  |  |  |  |  |  |  |  |  |  |  | 
CC/C(=C(\c1ccccc1)c1ccc(OCCN(C)C)cc1)c1ccccc1 [E-Tam, tamoxifen] | 464 ± 48^a^, ^†† % |  |  |  |  | 49.7 ± 1.5% | ER agonist |  |  |  |  |  |  |  |  |  | 
CC/C(=C(\c1ccc(O)cc1)c1ccc(OCCN(C)C)cc1)c1ccccc1 [Z-4OHT, 4-hydroxytamoxifen] | 323 ± 37^a^,^b % | 4900 nM | 495 nM | 681 nM | 1.38 |  |  | surmountable antagonism | 856 nM and 851 nM | surmountable antagonism | 4680 nM |  |  |  |  |  | 
CC/C(=C(\c1ccc(O)cc1)c1ccc(OCCNC)cc1)c1ccccc1 [Z-End, 4-hydroxy-N-desmethyl tamoxifen] | 259 ± 18^b % | 11500 nM | 2390 nM | 1160 nM | 0.49^†† |  |  | insurmountable |  | surmountable antagonism | 2570 nM | > 8 fold |  |  |  |  | 
CC/C(=C(\c1ccccc1)c1ccc(OCCN(C)C)cc1)c1ccccc1 [Z-Tam, tamoxifen] | 374 ± 24^a^,^b^, ^††† % |  |  |  |  | 65.1± 3.0% | ER antagonist | surmountable antagonism |  | insurmountable |  |  | 11.3% | 32.3 ± 0.7^a % | 50.8 ± 2.7% | 23.0% | 23.0 ± 0.5^b %
